This assay has as its system T-type calcium channels. Briefly: T-type calcium channel inhibitory activity (Fluo-4 FLIPR fluorescence and whole cell patch clamp). Type of assay: cell-based, mammalian. Particulars: cells natively expressing T-type channels or HEK-293 cells expressing recombinant T-type calcium channels; fluorometric and electrophysiological methods, not distinguished in the table; read-out: Activity (inhibition of T-type calcium channels, IC50). The protocol:
T-type calcium channel inhibitory activity of some compounds of the invention was evaluated using both fluorometric as well as electrophysiological measurement methodologies, which are known to those skilled in the art. Fluorescence measurement of changes in intracellular calcium due to entry of calcium through T-type calcium channels was assessed using calcium sensitive fluorescent dyes Fluo-4 and Fluo-3. In brief, cells natively expressing T-type channels or HEK-293 cells transiently or stably expressing recombinant mammalian T-type calcium channels grown in 96-well tissue culture plates in DMEM/High glucose, Hyclone, Fetal Bovine Serum (10%), and 2 mM sodium pyruvate 2 mM (and for cells lines recombinantly expressing T-type calcium channels, G418@400 mg/liter) were loaded with 4 μM Fluo-4 made up in Earls Balanced Salt Solution (EBSS). After incubation for 30 minutes at room temperature, cells were washed with low calcium (0.5 mM) EBSS to remove extracellular Fluo-4. Baseline fluorescence was measured in a FLIPR (FLuorescence Image Plate Reader) (Molecular Devices Inc) after applying test compounds at desired concentration for 5-10 minutes. The effect of test compound on calcium entry was assessed by monitoring changes in Fluo-4 fluorescence following an elevation of extracellular calcium concentration from 0.5 mM to 5 mM. […] Native cells natively expressing T-type channels or HEK-293 cells transiently or stably expressing recombinant mammalian T-type calcium channels were grown in DMEM/High glucose, Hyclone, Fetal Bovine Serum (10%), 2 mM sodium pyruvate 2 mM (and for cells lines recombinantly expressing T-type calcium channels, G418@400 mg/liter) on glass coverslips in 35 mm tissue culture dishes. […] Electrical currents were measured using the whole cell configuration of the patch clamp technique (Axopatch 200B, Axon Instruments (Molecular Devices) (see Hamill et al (1981) PFugers Arch, 1981 391:85-100) using 2-2.5 MOhm resistance glass pipettes filled with 135 CsF, 5 CsCl, 5 NaCl, 5 EGTA, 10 HEPES, pH 7.3 with CsOH, Osmolarity ˜288 mOsm. Test compound effects were typically assessed under conditions in which approximately half of the available channels were inactivated either by an 8 second conditioning depolarization from a holding potential of −100 mV to a potential ranging from −70 mV to −60 mV or by continually holding the membrane potential at −70 mV. Test compounds were assessed for their ability to reduce the amplitude of the inward T-type calcium current elicited by a 100 ms step depolarization −20 or −30 mV.
(The patch-clamp technique gives a direct electrical read-out from membranes.)

For the molecule `CCOc1cccc(S(=O)(=O)c2cnc(Nc3cc(NCC[C@H]4CCNC4)nc(C)n3)s2)c1` [Example 10, N-[5-(3-ethoxy-benzenesulfonyl)-thiazol-2-yl]-2-methyl-N′-(R)-(pyrrolidin-3-yl-ethyl)-pyrimidine-4,6-diamine], the IC50 (usually the concentration needed to halve the response being measured) fell in the range of 1 to 1000 nM.
The value for `CCOc1cccc(S(=O)(=O)c2cnc(Nc3cc(OC[C@H]4CCCN4)nc(C)n3)s2)c1` [Example 21, N-[5-(3-ethoxy-benzenesulfonyl)-thiazol-2-yl]-[2-methyl-((6R)-1-pyrrolidin-2-yl-methoxy)pyrimidin-4-yl]-amine] was 1 to 1000 nM; that for `CCOc1cccc(S(=O)(=O)c2cnc(Nc3cc(OCCN(C)C)nc(C(F)(F)F)n3)s2)c1` [Example 28, [6-(2-Dimethylamino-ethoxy)-2-trifluormethyl-pyrimidin-4-yl]-[5-(3-Ethoxy-benzenesulfonyl)-thiazol-2-yl]-amine] was 1 to 1000 nM; that for “[5-(3-Ethoxy-benzenesulfonyl)-thiazol-2-yl]-[6-(3-methylamino)propyl)-2-methyl-pyrimidin-4-yl]-amine [Example 35]” was 1 to 1000 nM.

These data come from patent US8034954B2, “Calcium channel antagonists” (Icagen, Inc., priority 2005, dated 2011).
